Experimental data reported in PMC11905624 (BMC Biology, 2025).
Peptide text beside a SMILES is read from it.

Assays:
[1] = target: T1, B2 receptor (Homo sapiens, UniProt P30411); test: Intracellular calcium flux in HaCaT cells; type: cell-based
T1 construct: endogenous in cells; host or cells: HaCaT
T1 sequence (P30411 1-391): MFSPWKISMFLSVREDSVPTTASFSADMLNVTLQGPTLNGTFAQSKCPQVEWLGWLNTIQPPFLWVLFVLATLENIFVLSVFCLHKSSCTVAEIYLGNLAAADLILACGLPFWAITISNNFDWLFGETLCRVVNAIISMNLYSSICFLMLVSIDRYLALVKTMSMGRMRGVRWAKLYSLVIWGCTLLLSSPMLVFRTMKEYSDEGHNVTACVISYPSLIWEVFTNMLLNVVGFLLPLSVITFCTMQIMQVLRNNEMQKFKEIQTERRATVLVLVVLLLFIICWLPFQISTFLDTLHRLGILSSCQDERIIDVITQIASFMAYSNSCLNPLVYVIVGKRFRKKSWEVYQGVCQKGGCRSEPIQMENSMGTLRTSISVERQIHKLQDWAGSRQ
Description: HaCaT cells were seeded onto 96-well plates and, upon reaching full confluence, were starved for 3 h (medium without FBS). […] After 1.5 h in 37 °C, fluorescence intensity (485/525 nm) was recorded continuously for 5 min using FlexStation 3 (Molecular Devices). […] FBS (3%) served as positive control. Results were calculated as area under the curves of RFU fold change from the signal recorded at baseline and adjusted to % of maximum response (FBS) curve. Non-linear regression analyses were performed to generate dose–response curves and calculate EC50 values.

[2] = target: T2, pKLK (Homo sapiens, UniProt P03952); test: BK release from HMWK by pKLK, HPLC; type: biochemical; conditions: 5 µg HMWK, 500 nM pKLK, 24 h, 50 mM Tris-HCl pH 7.5, 37 °C
T2 construct: purchased Merck
T2 sequence (P03952 20-638): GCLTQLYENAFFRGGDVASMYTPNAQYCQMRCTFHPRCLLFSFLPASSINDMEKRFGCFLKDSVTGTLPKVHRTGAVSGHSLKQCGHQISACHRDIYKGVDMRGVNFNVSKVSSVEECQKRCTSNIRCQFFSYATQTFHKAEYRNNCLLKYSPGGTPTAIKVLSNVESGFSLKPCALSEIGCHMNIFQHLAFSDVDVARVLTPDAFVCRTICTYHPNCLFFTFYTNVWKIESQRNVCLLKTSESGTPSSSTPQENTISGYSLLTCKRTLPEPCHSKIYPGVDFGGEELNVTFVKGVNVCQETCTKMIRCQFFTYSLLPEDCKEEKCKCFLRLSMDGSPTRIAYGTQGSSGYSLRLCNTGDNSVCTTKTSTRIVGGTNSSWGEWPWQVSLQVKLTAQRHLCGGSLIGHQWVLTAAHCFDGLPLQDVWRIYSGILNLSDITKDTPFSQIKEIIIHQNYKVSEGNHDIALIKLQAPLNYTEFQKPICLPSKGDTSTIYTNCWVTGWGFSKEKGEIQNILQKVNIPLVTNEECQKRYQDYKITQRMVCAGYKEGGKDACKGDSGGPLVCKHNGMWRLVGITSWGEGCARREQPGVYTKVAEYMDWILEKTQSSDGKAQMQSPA
Description: Ten µg of BK or cBK (ProImmune) were incubated with 15 ng of CPM (RnD; 1 h in 50 mM MES buffer pH 6.0 containing 5 mM CaCl2, 0.2% Triton-X100), 20 ng of NEP (RnD; 2 h in 50 mM HEPES buffer pH 7.4 containing 150 mM NaCl, 0,01% Triton-X100) or 40 ng of ACE1 (Merck; 4 h in 20 mM HEPES buffer containing 100 µM ZnCl2, 300 mM KCl) in final volume of 11 µl in 37 °C. Substrate controls were incubated in parallel without enzymes. Five µg of HMWK (Merck) were incubated with 500 nM of pKLK (Merck; 24 h in 50 mM Tris–HCl buffer pH 7.5 containing 100 mM NaCl, 0.01% Triton-X100) in final volume of 35 µl in 37 °C. Reactions were stopped with addition of TFA, TCA, EDTA and inhibitors for ACE1 (1 µM lisinopril), NEP (4 mM thiorphan), pKLK (1 mM AEBSF), and analysed via HPLC.
Absorbance chromatograms (215 nm) were evaluated with the LabSolutions software.

| Molecule | B2-stimulatory potential lower than the response elicited by native BK ([1]; 100 nM peptide, calcium sensitive dye) | EC50 ([1]; Calcium Dye 5, AUC of RFU fold change as % of maximum response (FBS), n = 6, mean ± SEM) [nM] | pKLK-driven generation of BK [2] |
| --- | --- | --- | --- |
| N=C(N)NCCC[C@H](NC(=O)[C@H](Cc1ccccc1)NC(=O)[C@@H]1CCCN1C(=O)[C@H](CO)NC(=O)[C@H](Cc1ccccc1)NC(=O)CNC(=O)[C@@H]1CCCN1C(=O)[C@@H]1CCCN1C(=O)[C@H](CCCNC(=N)N)NC(N)=O)C(=O)O [cBK] (HELM PEPTIDE1{[N=C(N)NCCC[C@H](NC(N)=O)C(=O)[*:2]].P.P.G.F.S.P.F.R}$$$$V2.0) | over 25% | 26.55 ± 0.0011 | – |
| carbamylated HMWK: carbamylated high molecular weight kininogen (protein, UniProt P01042 19-644, looked up, High molecular weight kininogen carbamylated) Kininogen-1: QESQSEEIDCNDKDLFKAVDAALKKYNSQNQSNNQFVLYRITEATKTVGSDTFYSFKYEIKEGDCPVQSGKTWQDCEYKDAAKAATGECTATVGKRSSTKFSVATQTCQITPAEGPVVTAQYDCLGCVHPISTQSPDLEPILRHGIQYFNNNTQHSSLFMLNEVKRAQRQVVAGLNFRITYSIVQTNCSKENFLFLTPDCKSLWNGDTGECTDNAYIDIQLRIASFSQNCDIYPGKDFVQPPTKICVGCPRDIPTNSPELEETLTHTITKLNAENNATFYFKIDNVKKARVQVVAGKKYFIDFVARETTCSKESNEELTESCETKKLGQSLDCNAEVYVVPWEKKIYPTVNCQPLGMISLMKRPPGFSPFRSSRIGEIKEETTVSPPHTSMAPAQDEERDSGKEQGHTRRHDWGHEKQRKHNLGHGHKHERDQGHGHQRGHGLGHGHEQQHGLGHGHKFKLDDDLEHQGGHVLDHGHKHKHGHGHGKHKNKGKKNGKHNGWKTEHLASSSEDSTTPSAQTQEKTEGPTPIPSLAKPGVTVTFSDFQDSDLIATMMPPISPAPIQSDDDWIPDIQIDPNGLSFNPISDFPDTTSPKCPGRPWKSVSEINPTTQMKESYYFDLTDGLS | – | – | abolishes |
